Source: patent publication US20200375987A1, “METALLO-BETA-LACTAMASE INHIBITORS AND METHODS OF USE THEREOF” (priority 2018, published 2020)

Tests used:
[1] = molecular target: NDM-1 (Klebsiella pneumoniae, UniProt C7C422); test: Enzyme activity: determination of IC50, fluorescence assay with CCF2-FA substrate (NDM-1); assay type: biochemical; conditions: 1 pM enzyme, 1.25 μM CCF2-FA, 2 hours at 25° C.; read-out: NDM1 IC50
Procedure: (§1) The Class B enzyme activities were measured in the presence of the test inhibitor in a fluorescence assay against a commercially available substrate consisting of a cephalosporin core linking 7-hydroxycoumarin to fluorescein (CCF2-FA). The enzyme (NDM-1, IMP-1 or VIM-1) and the substrate were diluted in 100 mM KH2PO4 buffer (pH 7) containing 0.005% Tween-20 and 10 μM ZnSO4. In the assay, the final concentration of enzyme was 1 pM, 2 pM and 30 pM for NDM-1, IMP-1 and VIM-1, respectively, and the final concentration of CCF2-FA was 1.25 μM. The test inhibitor was dissolved in dimethylsulfoxide and diluted 1:50 in the assay, resulting in a final concentration range of 20 μM to 0.00063 μM. In a 384-well microplate, the test inhibitor was incubated with the metallo-β-lactamase enzyme and the substrate for 2 hours at 25° C. Fluorescence at 460 nm following excitation at 405 nm was measured. The IC50 value was determined from semi-logarithmic plots of enzyme inhibition versus inhibitor concentration, with a curve generated using a 4-parameter fit.

[2] = molecular target: IMP-1 (Serratia marcescens, UniProt P52699); test: Enzyme activity: determination of IC50, fluorescence assay with CCF2-FA substrate (IMP-1); assay type: biochemical; conditions: 2 pM enzyme, 1.25 μM CCF2-FA, 2 hours at 25° C.; read-out: IMP1 IC50
Chain of IMP-1 (P52699 19-246, looked up, species assumed): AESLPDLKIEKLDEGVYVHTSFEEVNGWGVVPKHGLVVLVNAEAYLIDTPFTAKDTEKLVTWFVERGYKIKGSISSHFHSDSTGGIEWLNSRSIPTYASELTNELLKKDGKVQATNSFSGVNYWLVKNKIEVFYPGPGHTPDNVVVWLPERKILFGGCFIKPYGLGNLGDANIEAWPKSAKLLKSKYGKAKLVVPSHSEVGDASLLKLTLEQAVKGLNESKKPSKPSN
Procedure: as §1

[3] = molecular target: VIM-1 (Pseudomonas aeruginosa, UniProt A0A0F7KYQ8); test: Enzyme activity: determination of IC50, fluorescence assay with CCF2-FA substrate (VIM-1); assay type: biochemical; conditions: 30 pM enzyme, 1.25 μM CCF2-FA, 2 hours at 25° C.; read-out: VIM1 IC50
Procedure: as §1

[4] = molecular target: VIM-2 (Escherichia coli, UniProt Q5U7L7); test: Enzyme activity: determination of IC50 (VIM-2); assay type: biochemical; conditions: read-out: VIM2 IC50
[5] = test system: Escherichia coli expressing NDM-1 (CLB30016); test: Antibiotic potentiation activity: synergistic concentration (MITC95) with imipenem; assay type: cell-based; conditions: imipenem 1 μg/mL; lowest concentration inhibiting 95% of growth; 35° C., 22-24 hours
Procedure: (§2) The bacterial strains tested included the clinical strains Escherichia coli expressing NDM-1 (CLB30005, CLB30016), Serratia marcescens expressing IMP-1 (CL5741), and Klebsiella pneumoniae expressing VIM-1 (IHMA599644). Inhibitor activity was measured in the presence and absence of imipenem in a 384-well microplate.
(§3) The clinical strains CLB30016, CL5741 and IHMA599644 were grown on trypticase soy agar containing 5% sheep's blood. The bacteria on agar plates were incubated at 35° C. with humidity overnight. The following day, individual colonies from each clinical strain were picked and resuspended in 5 mL saline to attain an OD600 of 0.14, 0.11, 0.15 and 0.13, for CLB30016, CL5741 and IHMA599644, respectively. These were further diluted 1:100 into 1.1× CAMHB and used to inoculate the test wells as described below.
(§4) Imipenem in 10 mM 3-(N-morpholino)propanesulfonic acid (MOPS, pH 7) was stored in single use aliquots at −80° C. […] On the day of the assay, 4 μl of antibiotic was added to 45 μl of bacteria followed by 1 μl of test compound and mixed by pipetting and with an orbital shaker. The concentration of antibiotic used in the assay was 1 μg/mL. Microplates were covered and incubated at 35° C. for 22 hours to 24 hours. At the end of the incubation, absorbance was determined using a spectrophotometer. The synergistic concentration of MBLI was determined by identifying the lowest concentration of test compound in the presence of a given concentration of antibiotic that was required to inhibit 95% of the growth of the bacteria. The results for Examples 1-209 are reported in Table 1, expressed as the concentration of compound that potentiated the action of antibiotic (imipenem) affecting 95% inhibition of bacterial growth (MITC95).

[6] = test system: Klebsiella pneumoniae expressing VIM-1 (IHMA599644); test: as above; assay type: cell-based; conditions: imipenem 1 μg/mL; lowest concentration inhibiting 95% of growth; 35° C., 22-24 hours
Procedure: as §2, §3, §4

[7] = test system: Serratia marcescens expressing IMP-1 (CL5741); test: as above; assay type: cell-based; conditions: imipenem 1 μg/mL; lowest concentration inhibiting 95% of growth; 35° C., 22-24 hours
Procedure: as §2, §3, §4

[8] = test system: P. aeruginosa MB9798 (efflux WT, IMP-1); test: Efflux: concentration of MBL inhibitor restoring susceptibility to imipenem (MITC95), efflux+ strain; assay type: cell-based, Pseudomonas aeruginosa; conditions: imipenem at 2 μg/mL in the presence of a class A, C, D serine β-lactamase inhibitor closely related to relebactam
Source text: (§5) In order to assess the contribution of efflux to lack of whole cell inhibition of metallo-beta-lactamase inhibitors of formula I, tool strains were constructed. The strain background is Pseudomonas aeruginosa PAO1. A wild-type (MB5919) and an isogenic strain in which multiple efflux pumps have been disrupted genetically were used. The MBL IMP-1, obtained from a clinical isolate was introduced into the strain pair by the following process:
(§6) Plasmid DNA (encoding IMP-1) was extracted from CL 5673 (IMP-1, P. aeruginosa clinical strain) by standard techniques. The plasmid DNA was transformed into parental MB5919 (oprD+, efflux+, inducible AmpC) and MB5890 (oprD+, efflux−, inducible AmpC) isogenic strains by electroporation. These transformed strains were plated onto cation-adjusted Muller-Hinton agar plates containing ceftazidime at 32 μg/mL (MB5919) and 16 μg/mL (MB5890) to select for those cells in which the IMP-1-expressing plasmid was introduced successfully, resulting in resistance to ceftazidime. Agarose-gel electrophoresis of PCR product for IMP-1 from the successful transformants was used to compare to control and to the original strain from which the plasmid was obtained, confirming transfer of the IMP-1 gene (data not shown).
(§7) The strain set was then used as a pair to determine the effect of metallo-β-lactamase inhibitors of Formula Ion the MIC of imipenem and/or ceftazidime. A fixed concentration of antibiotic is included in standard microbroth MIC tests, usually at the CLSI breakpoint concentration. A fixed amount of a class A/C beta-lactamase inhibitor is also included to inhibit the resident Pseudomonas AmpC enzyme. A serial titration of the metallo-β-lactamase inhibitor was included and the concentration of metallo-β-lactamase inhibitor which restores susceptibility of the strain to the included antibiotic was recorded. That concentration of metallo-β-lactamase inhibitor was then compared between the two strains to determine the fold difference between the efflux+(MB9798) and efflux−(MB9799) strains, which indicates n the extent to which the MBLi is subject to efflux.

[9] = test system: P. aeruginosa MB9799 (efflux mutant, IMP-1); test: Efflux: concentration of MBL inhibitor restoring susceptibility to imipenem (MITC95), efflux− strain; assay type: cell-based, Pseudomonas aeruginosa; conditions: imipenem at 2 μg/mL in the presence of a class A, C, D serine β-lactamase inhibitor closely related to relebactam
Source text: as §5, §6, §7

Chain of NDM-1 (C7C422 29-270, looked up, species assumed): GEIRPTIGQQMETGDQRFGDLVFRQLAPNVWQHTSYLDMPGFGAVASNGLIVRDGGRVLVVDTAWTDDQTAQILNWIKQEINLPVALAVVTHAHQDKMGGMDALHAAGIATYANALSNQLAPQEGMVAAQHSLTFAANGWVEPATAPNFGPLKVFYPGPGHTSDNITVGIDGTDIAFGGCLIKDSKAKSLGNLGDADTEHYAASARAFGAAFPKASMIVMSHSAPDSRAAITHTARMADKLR

SMILES | IC50 [1] [nM] | IC50 [2] [nM] | IC50 [3] [nM] | IC50 [4] [nM] | CLB30016 E.coli MITC95 NDM [5] [µM] | IHMA599644 K.pneumoniae MITC95 uM VIM [6] [µM] | CL5741 S.marcescens MITC95 uM IMP [7] [µM] | MB9798 MITC95 P. aeruginosa Efflux WT [8] [µM] | MB9799 MITC95 P. aeruginosa Efflux Mutant [9] [µM]
CCOC(=O)c1cn2c(n1)N(c1ccc(S(=O)(=O)N[C@@H]3CCNC3)c(S(N)(=O)=O)c1-c1nn[nH]n1)CCC2 [Example 5, ethyl (R)-8-(4-(N-(pyrrolidin-3-yl)sulfamoyl)-3-sulfamoyl-2-(2H-tetrazol-5-yl)phenyl)-5,6,7,8-tetrahydroimidazo[1,2-a]pyrimidine-2-carboxylate] | 0.04 | 0.96 | 0.12 | 0.55 | 12.50 | 12.50 | 6.25 | 6.25 | 3.13
NS(=O)(=O)c1c(S(=O)(=O)N[C@@H]2CCNC2)ccc(N2CCCn3ccnc32)c1-c1nnn[nH]1 [Example 13, (R)-4-(6,7-dihydroimidazo[1,2-a]pyrimidin-8(5H)-yl)-N1-(pyrrolidin-3-yl)-3-(1H-tetrazol-5-yl)benzene-1,2-disulfonamide] | 0.77 | 9.7 | 0.39 | 2.16 | 0.20 | 0.78 | 0.39 | 1.56 | 0.78
NC[C@@H](O)CS(=O)(=O)c1ccc(N2CCCn3ccnc32)c(-c2nn[nH]n2)c1S(N)(=O)=O [Example 37, (R)-6-((3-amino-2-hydroxypropyl)sulfonyl)-3-(6,7-dihydroimidazo[1,2-a]pyrimidin-8(5H)-yl)-2-(2H-tetrazol-5-yl)benzenesulfonamide] | 4.31 | 5.6 | 2.22 | 4.44 | 0.20 | 1.56 | 0.78 | 3.13 | 0.78
C[C@H](N)CNS(=O)(=O)c1ccc(N2CCCn3ccnc32)c(-c2nn[nH]n2)c1S(N)(=O)=O [Example 14, (S)-N1-(2-aminopropyl)-4-(6,7-dihydroimidazo[1,2-a]pyrimidin-8(5H)-yl)-3-(2H-tetrazol-5-yl)benzene-1,2-disulfonamide] | 1.61 | 6.32 | 0.97 | 2.6 | 0.10 | 1.56 | 0.39 | 3.13 | 0.78
NS(=O)(=O)c1c(S(=O)(=O)N[C@@H]2CCNC2)ccc(N2CCc3[nH]ncc3C2)c1-c1nnn[nH]1 [Example 30, N1-[(3R)-pyrrolidin-3-yl]-4-(1,4,6,7-tetrahydro-5H-pyrazolo[4,3-c]pyridin-5-yl)-3-(1H-tetrazol-5-yl)benzene-1,2-disulfonamide] | 0.19 | 1.11 | 0.25 | 0.98 | 0.78 | 6.25 | 1.56 | 6.25 | 1.56
NS(=O)(=O)c1c(S(=O)(=O)N[C@@H]2CCNC2)ccc(N2CCCn3cnnc32)c1-c1nn[nH]n1 [Example 6, (R)-4-(6,7-dihydro-[1,2,4]triazolo[4,3-a]pyrimidin-8(5H)-yl)-N^1-(pyrrolidin-3-yl)-3-(2H-tetrazol-5-yl)benzene-1,2-disulfonamide] | 0.72 | 6.8 | 0.24 | 1.13 | 0.78 | 6.25 | 3.13 | 3.13 | 3.13
NCC(CN)NS(=O)(=O)c1ccc(N2CCn3ccnc3C2)c(-c2nn[nH]n2)c1S(N)(=O)=O [Example 10, N1-(1,3-diaminopropan-2-yl)-4-(5,6-dihydroimidazo[1,2-a]pyrazin-7(8H)-yl)-3-(2H-tetrazol-5-yl)benzene-1,2-disulfonamide] | 1.17 | 2.96 | 0.25 | 0.99 | 0.10 | 1.56 | 0.39 | 3.13 | 1.56
NS(=O)(=O)c1c(S(=O)(=O)N[C@@H]2CCNC2)ccc(N2CCc3ccncc32)c1-c1nnn[nH]1 [Example 33, 4-(2,3-dihydro-1H-pyrrolo[2,3-c]pyridin-1-yl)-N1-[(3R)-pyrrolidin-3-yl]-3-(1H-tetrazol-5-yl)benzene-1,2-disulfonamide] | 0.3 | 1.73 | 0.26 | 0.72 | 1.56 | 3.13 | 3.13 | 6.25 | 1.56
Nc1nc2c(s1)CN(c1ccc(S(=O)(=O)N[C@@H]3CCNC3)c(S(N)(=O)=O)c1-c1nnn[nH]1)CC2 [Example 29, 4-(2-amino-6,7-dihydro[1,3]thiazolo[5,4-c]pyridin-5(4H)-yl)-N1-[(3R)-pyrrolidin-3-yl]-3-(1H-tetrazol-5-yl)benzene-1,2-disulfonamide] | 6.28 | 7.11 | 8.27 | 32.8 | 1.56 | 12.50 | 1.56 | 25.00 | 0.78
